# Measurements reported in ChEMBL document CHEMBL1149613, “Characterized mechanism of alpha-mangostin-induced cell death: caspase-independent apoptosis with release of endonuclease-G from mitochondria and increased miR-143 expression in human colorectal cancer DLD-1 cells” (Bioorg Med Chem, 2007).
# The source made the active and inactive calls. The rule behind the calls is not given here.
# How the values were obtained:
# Type in all cases: functional, cell-based
# DLD-1 [1] = experiment: Growth inhibition of human DLD1 cells
# DLD-1 [2] = experiment: Increase in p-p38 levels in human DLD1 cells after 1 to 3 hrs by Western blot
# DLD-1 [3] = experiment: Induction of apoptosis in human DLD1 cells assessed as release of apoptosis-inducing factor at 20 uM after 6 to 24 hrs by Western blot
# DLD-1 [4] = experiment: Induction of apoptosis in human DLD1 cells assessed as release of endonuclease-G after 6 hrs by Western blot
# DLD-1 [5] = experiment: Induction of apoptosis in human DLD1 cells assessed as activation of pan-caspase at 20 uM by Western blot
# DLD-1 [6] = experiment: Decrease in Erk5 expression levels in human DLD1 cells by Western blot
# DLD-1 [7] = experiment: Reduction in cMyc level in human DLD1 cells by Western blot
# DLD-1 [8] = experiment: Induction of apoptosis in human DLD1 cells assessed as activation of caspase-3 at 20 uM by Western blot
# DLD-1 [9] = experiment: Induction of apoptosis in human DLD1 cells assessed as activation of bcl2 at 20 uM by Western blot
# DLD-1 [10] = experiment: Induction of apoptosis in human DLD1 cells assessed as release of endonuclease-G at 20 uM after 6 to 24 hrs by Western blot
# DLD-1 [11] = experiment: Effect on ERK5 mRNA expression levels in human DLD1 cells by semi-qRT PCR
# DLD-1 [12] = experiment: Cytotoxicity against human DLD1 cells assessed as decrease in cell number at 20 uM after 24 hrs by Trypan blue exclusion test
# DLD-1 [13] = experiment: Induction of apoptosis in human DLD1 cells assessed as activation of bax protein at 20 uM by Western blot
# DLD-1 [14] = experiment: Cytotoxicity against human DLD1 cells after 24 hrs by Trypan blue exclusion test; settings: DLD-1, 24 h
# DLD-1 [15] = experiment: Apoptotic activity in human DLD1 cells at 15 uM after 24 hrs by Trypan blue exclusion test
# DLD-1 [16] = experiment: Cytotoxicity against human DLD1 cells at 2 uM after 24 hrs by Trypan blue exclusion test
SMILES,IC50 (DLD-1 [1]) [µM],Activity (DLD-1 [2]),Activity (DLD-1 [3]),Activity (DLD-1 [4]),Activity (DLD-1 [5]),Activity (DLD-1 [6]),Activity (DLD-1 [7]),Activity (DLD-1 [8]),Activity (DLD-1 [9]),Activity (DLD-1 [10]),Activity (DLD-1 [11]),Activity (DLD-1 [12]),Activity (DLD-1 [13]),IC50 (DLD-1 [14]) [µM],Activity (DLD-1 [15]),Activity (DLD-1 [16])
O=c1[nH]cc(F)c(=O)[nH]1 [FLUOROURACIL],4.5,,,,,,,,,,,,,,,
COc1c(O)cc2oc3cc(O)c(CC=C(C)C)c(O)c3c(=O)c2c1CC=C(C)C [MANGOSTIN],,Active,inactive,Dose-dependent effect,inactive,Active,Active,inactive,inactive,Active,inactive,Active,inactive,7.5,Active,Active
